Results on 26 compounds are retold here after US8106047B2, “Triazolophthalazines” (NYCOMED GmbH, priority 2005, dated 2012).

Molecules are shown by their SMILES. Entries after “also recorded” stand apart in the source; their conditions may differ. Some results are limits rather than exact numbers.

In general, melting point refers to the temperature of the solid-liquid transition.

The first data set relates to HUVEC monolayers. As to the kind of experiment: Inhibition of macromolecule (HRP) permeability of thrombin-stimulated HUVEC monolayers. The class given is cell-based, human. Particulars: 10 μM Motapizone (PDE3) and 1 μM RP73401 (PDE4) together, 1 U/ml thrombin. The protocol: Method to Assess Inhibition of Macromolecule Permeability of HUVEC Monolayers
The procedure to measure macromolecule permeability of endothelial cell monolayers followed the method described by Langeler & van Hinsbergh (1988) with modifications. Human umbilical vein endothelial cells were isolated from umbilical cords according to standard procedures (Jaffe et al. 1973) and cultured in endothelial cell basal medium (EBM) supplemented with 2% FCS, 0.5 ng/ml VEGF, 10 ng/ml bFGF, 5 ng/ml EGF, 20 ng/ml Long R3 IGF-1, 0.2 μg/ml hydrocortisone, 1 μg/ml ascorbic acid, 22.5 μg/ml heparin, 50 μg/ml gentamicin, 50 ng/ml amphotericin B (EGM2 purchased from Promocell GmbH, Heidelberg, Germany). At confluency, cells were trypsinized and replated at 73000 cells per well on 3 μm polycarbonate filter Transwell inserts (Costar GmbH, Bodenheim, Germany) precoated with 10 μg cm^2−1 Fibronectin (Sigma, Taufkirchen, Germany). HUVECs were cultured in EGM2 (100 μl in the upper wells and 600 μl in the lower wells) over four days prior the experiments and medium was changed every other day. At the day of the experiment culture medium was replaced by M199 with 1% human serum albumin. Endothelial cells were preincubated with cyclic nucleotide modifiers (the selective PDE3 inhibitor motapizone, the selective PDE4 inhibitor RP73401, the cGMP generators ANP or SNP and PDE2 inhibitors) for 15 min. HUVECs were then stimulated with Thrombin (1 U ml^−1) (Sigma, Taufkichen, Germany) and horsh radish peroxidase (5 μg/ml) (Sigma, Taufkirchen, Germany) as the macromolecule marker protein was added to the upper wells. Following 1 h incubation time Transwells were removed and the activity of horsh radish peroxidase that penetrated the endothelial cell monolayer was measured in the lower wells with the 3,3′,5,5′-tetramethylbenzidine liquid substrate system from Sigma (Taufkirchen, Germany).
In parallel, compounds according to the invention can inhibit Thrombin-induced permeability of HUVEC monolayers for horsh radish peroxidase (HRP) as a macromolecule marker. […] The concentration-dependent inhibition of HRP permeability at different concentrations was assessed from the percent inhibition in the presence and absence of the PDE2 inhibitors and in the presence of 1 μM RP73401, 10 μM Motapizone and 100 nM ANP.
Inhibition of SNP- or ANP-Induced Permeability of HUVEC Monolayers:
HUVEC cells on 3 μm polycarbonate filters (Transwells) were preincubated with 1 μM RP73401 (to block PDE4) and 10 μM Motapizone (to block PDE3), 1 mM SNP or 100 nM ANP and test sample over 15 min and then stimulated with 1 U/ml thrombin. HRP passage into the lower wells was assessed after 60 min.
As for `CC1CC(=O)NN=C1c1cc(-n2ccnc2)cs1` (stereo not drawn) [Motapizone, reference compound], the “Thrombin-induced increase of HRP permeability (hyperpermeability)” value was “completely abolished; also recorded: completely blocked”. With `COc1ccc(C(=O)Nc2c(Cl)cncc2Cl)cc1OC1CCCC1` [RP73401, reference compound], the “Thrombin-induced increase of HRP permeability (hyperpermeability)” value is given as “completely abolished; also recorded: completely blocked”.

Still in this data set, the particulars now being: Homo sapiens, 1 h; HUVEC on Transwells, 1 μM RP73401, 10 μM Motapizone, 1 mM SNP or 100 nM ANP, 1 U/ml thrombin, HRP passage after 60 min; read-out: Inhibition of SNP- or ANP-induced permeability, −log IC50 [mol/l] (converted).
`CN(C)S(=O)(=O)c1cccc(Nc2nn3c(-c4ccc(Br)cc4)nnc3c3ccccc23)c1` [Compound 28, [3-(N,N-dimethylsulfamoyl)-phenyl]-[3-(4-bromo-phenyl)-[1,2,4]triazolo[3,4-a]phthalazin-6-yl]-amine]: the IC50 was 0.501 to 126 nM. `CN(C)S(=O)(=O)c1cccc(Nc2nn3c(-c4ccccc4Br)nnc3c3ccccc23)c1` [Compound 27, [3-(N,N-dimethylsulfamoyl)-phenyl]-[3-(2-bromo-phenyl)-[1,2,4]triazolo[3,4-a]phthalazin-6-yl]-amine]: the IC50 is 0.501 to 126 nM. As to `COc1ccc(-c2nnc3c4ccccc4c(Nc4ccc(S(=O)(=O)Nc5ncccn5)cc4)nn23)cc1` [Compound 21, 4-[3-(4-Methoxyphenyl)-[1,2,4]triazolo[3,4-a]phthalazin-6-ylamino]-N-pyrimidin-2-yl-benzenesulfonamide], the IC50 is 0.501 to 126 nM. With `COc1ccccc1-c1nnc2c3ccccc3c(Nc3cccc(NS(=O)(=O)N(C)C)c3)nn12` [Compound 32], the IC50 is 0.501 to 126 nM.

`COc1ccc(-c2nnc3c4ccccc4c(Nc4cccc(S(=O)(=O)N5CCOCC5)c4)nn23)cc1` [Compound 25, [3-(4-Methoxyphenyl)-[1,2,4]triazolo[3,4-a]phthalazin-6-yl]-[3-(morpholine-4-sulfonyl)-phenyl]-amine]: the IC50 is 0.501 to 126 nM.

Regarding `COc1ccc(-c2nnc3c4ccccc4c(Nc4cccc(S(=O)(=O)N(C)C)c4)nn23)cc1` [Compound 13, [3-(N,N-dimethylsulfamoyl)-phenyl]-[3-(4-methoxy-phenyl)-[1,2,4]triazolo[3,4-a]phthalazin-6-yl]-amine], the IC50 is 0.501 to 126 nM. Consider `COc1ccc(-c2nnc3c4ccccc4c(Nc4ccc(S(=O)(=O)N(C)C)cc4)nn23)cc1` [Compound 7, [4-(N,N-dimethylsulfamoyl)-phenyl]-[3-(4-methoxy-phenyl)-[1,2,4]triazolo[3,4-a]phthalazin-6-yl]-amine], for which the IC50 is 0.501 to 126 nM.

As for `CN(C)S(=O)(=O)c1cccc(Nc2nn3c(-c4ccccc4C(F)(F)F)nnc3c3ccccc23)c1` [Compound 33, [3-(N,N-dimethylsulfamoyl)-phenyl]-[3-(2-trifluoromethyl-phenyl)-[1,2,4]triazolo[3,4-a]phthalazin-6-yl]-amine], the IC50 is 0.501 to 126 nM.

Test system in a further data set: not given
Experiment: not given
Details: not given
As for `COc1ccc(-c2nnc3c4ccccc4c(Nc4ccc(-c5nnn(C)n5)cc4)nn23)cc1` [Compound T6, [3-(4-Methoxy-phenyl)-[1,2,4]triazolo[3,4-a]phthalazin-6-yl]-[4-(2-methyl-2H-tetrazol-5-yl)-phenyl]-amine], the melting point is 289 to 293 °C. The compound `COc1ccc(Cc2nnc3c4ccccc4c(Nc4cccc(-c5nn[nH]n5)c4)nn23)cc1` [Compound T8, [3-(4-Methoxy-benzyl)-[1,2,4]triazolo[3,4-a]phthalazin-6-yl]-[3-(2H-tetrazol-5-yl)-phenyl]-amine] displayed a melting point of 292 to 293 °C.

Take `COc1ccc(-c2nnc3c4ccccc4c(Nc4ccc(C#N)cc4)nn23)cc1` [Compound T2, 4-[3-(4-Methoxyphenyl)-[1,2,4]triazolo[3,4-a]phthalazin-6-ylamino]-benzonitrile]: the melting point amounted to 314 °C. The compound `COc1ccc(-c2nnc3c4ccccc4c(Nc4cccc(S(=O)(=O)N(C)C)c4)nn23)cc1` [Compound 24, 3-[3-(4-Methoxy-phenyl)-[1,2,4]triazolo[3,4-a]phthalazin-6-ylamino]-N,N-dimethyl-benzenesulfonamide] came in with a melting point of 220 to 227 °C. In turn, `COc1ccc(-c2nnc3c4ccccc4c(Nc4cccc(-c5nnn(C)n5)c4)nn23)cc1` [Compound T5, [3-(4-Methoxy-phenyl)-[1,2,4]triazolo[3,4-a]phthalazin-6-yl]-[3-(2-methyl-2H-tetrazol-5-yl)-phenyl]-amine] came in with a melting point of 256 to 259 °C. In turn, `COc1ccc(-c2nnc3c4ccccc4c(Nc4cccc(NS(=O)(=O)c5ccc(NC(C)=O)cc5)c4)nn23)cc1` [Compound 18, N-(4-{3-[3-(4-Methoxy-phenyl)-[1,2,4]triazolo[3,4-a]phthalazin-6-ylamino]-phenylsulfamoyl}-phenyl)-acetamide] returned a melting point of 328 to 331 °C. On to `CN(C)S(=O)(=O)c1cccc(Nc2nn3c(-c4ccc(Br)cc4)nnc3c3ccccc23)c1` [Compound 28, [3-(N,N-dimethylsulfamoyl)-phenyl]-[3-(4-bromo-phenyl)-[1,2,4]triazolo[3,4-a]phthalazin-6-yl]-amine], for which the melting point lay within 290 to 293 °C.

`COc1ccc(-c2nnc3c4ccccc4c(Nc4ccc(NS(=O)(=O)c5cccc(OC)c5)cc4)nn23)cc1` [Compound 5, 3-Methoxy-N-{4-[3-(4-methoxy-phenyl)-[1,2,4]triazolo[3,4-a]phthalazin-6-ylamino]-phenyl}-benzenesulfonamide] showed a melting point of 290 °C. In the case of `COc1ccc(-c2nnc3c4ccccc4c(Nc4ccc(S(=O)(=O)Nc5ncccn5)cc4)nn23)cc1` [Compound 21, 4-[3-(4-Methoxyphenyl)-[1,2,4]triazolo[3,4-a]phthalazin-6-ylamino]-N-pyrimidin-2-yl-benzenesulfonamide], the melting point is > 350 °C.

In turn, `COc1ccccc1-c1nnc2c3ccccc3c(Nc3cccc(NS(=O)(=O)N(C)C)c3)nn12` [Compound 32] returned a melting point of 229 to 233 °C. In turn, `COc1ccc(-c2nnc3c4ccccc4c(Nc4cccc(S(=O)(=O)N5CCOCC5)c4)nn23)cc1` [Compound 25, [3-(4-Methoxyphenyl)-[1,2,4]triazolo[3,4-a]phthalazin-6-yl]-[3-(morpholine-4-sulfonyl)-phenyl]-amine] gave a melting point of 265.4 °C. Compound `COc1ccc(-c2nnc3c4ccccc4c(Nc4cccc(NS(=O)(=O)c5ccc(C(C)=O)cc5)c4)nn23)cc1` [Compound 12, 4-Acetyl-N-{3-[3-(4-methoxy-phenyl)-[1,2,4]triazolo[3,4-a]phthalazin-6-ylamino]-phenyl}-benzenesulfonamide] showed a melting point of 352 to 354 °C. For `COc1ccc(-c2nnc3c4ccccc4c(Nc4cccc(S(N)(=O)=O)c4)nn23)cc1` [Compound 23, 3-[3-(4-Methoxy-phenyl)-[1,2,4]triazolo[3,4-a]phthalazin-6-ylamino]-benzenesulfonamide], the melting point lay in the range of 342 to 349 °C. The same measure, in the same setting: as for `COc1ccc(Cc2nnc3c4ccccc4c(Nc4cccc(-c5nnn(C)n5)c4)nn23)cc1` [Compound T9, [3-(4-Methoxy-benzyl)-[1,2,4]triazolo[3,4-a]phthalazin-6-yl]-[3-(2-methyl-2H-tetrazol-5-yl)-phenyl]-amine], the figure is 262 to 264 °C. In turn, `COc1ccc(-c2nnc3c4ccccc4c(Nc4cccc(NS(=O)(=O)c5ccc(N6CCOCC6)nc5)c4)nn23)cc1` [Compound 16, 6-Morpholin-4-yl-pyridine-3-sulfonic acid {3-[3-(4-methoxy-phenyl)-[1,2,4]triazolo[3,4-a]phthalazin-6-ylamino]-phenyl}-amide] showed a melting point of 323 to 329 °C.

In turn, `COc1ccc(-c2nnc3c4ccccc4c(Nc4cccc(NS(=O)(=O)c5cn(C)cn5)c4)nn23)cc1` [Compound 11, 1-Methyl-1H-imidazole-4-sulfonic acid {3-[3-(4-methoxy-phenyl)-[1,2,4]triazolo[3,4-a]phthalazin-6-ylamino]-phenyl}-amide] showed a melting point of 184 to 187 °C. For `COc1ccc(-c2nnc3c4ccccc4c(Nc4ccc(NS(=O)(=O)c5cn(C)cn5)cc4)nn23)cc1` [Compound 2, 1-Methyl-1H-imidazole-4-sulfonic acid {4-[3-(4-methoxy-phenyl)-[1,2,4]triazolo[3,4-a]phthalazin-6-ylamino]-phenyl}-amide], the melting point lay within 346 to 348 °C.

`COc1ccc(-c2nnc3c4ccccc4c(Nc4ccc(-c5nn[nH]n5)cc4)nn23)cc1` [Compound T4, [3-(4-Methoxy-phenyl)-[1,2,4]triazolo[3,4-a]phthalazin-6-yl]-[4-(2H-tetrazol-5-yl)-phenyl]-amine] had a melting point of 281 to 284 °C. `COc1ccc(Cc2nnc3c4ccccc4c(Nc4ccc(S(=O)(=O)N5CCCCC5)cc4)nn23)cc1` [Compound 35, [3-(4-Methoxy-benzyl)-[1,2,4]triazolo[3,4-a]phthalazin-6-yl]-[4-(piperidine-1-sulfonyl)-phenyl]-amine] gave a melting point of 283 to 285 °C. Turning to `COc1ccc(-c2nnc3c4ccccc4c(Nc4cccc(-c5nn[nH]n5)c4)nn23)cc1` [Compound T3, [3-(4-Methoxy-phenyl)-[1,2,4]triazolo[3,4-a]phthalazin-6-yl]-[3-(2H-tetrazol-5-yl)-phenyl]-amine], the melting point lay in the range of 305 to 308 °C.
